{"source": "paper PMC9241695", "about": "“Selective Metal Chelation by a Thiosemicarbazone Derivative Interferes with Mitochondrial Respiration and Ribosome Biogenesis in Candida albicans” (Microbiology Spectrum, 2022)", "key": {"C. albicans SC5314 [1]": {"test_system": "C. albicans SC5314", "assay": "Drug resistance study by serial passage", "type": "cell-based, Candida albicans", "conditions": "RPMI 1640 medium, 40-day period, passages at 0.5 × MIC"}, "C. albicans SC5314 [2]": {"test_system": "C. albicans SC5314", "assay": "Respiratory activity by CTC staining", "type": "cell-based, Candida albicans", "conditions": "6 h, 1 mM CTC; 19ak 0.125-1 μg/mL, TPEN 0.05-0.4 μg/mL", "description": "h (for C. albicans, C. krusei, C. tropicalis, C. parapsilosis) or 48 h (for C. neoformans, A. fumigatus). The MIC was determined based on visible growth inhibition compared with the control. All experiments were performed in duplicate.\nCytotoxicity testing. The cell lines HK2 and 16HBE were used to evaluate the cytotoxicity of 19ak, 19k and 19t. Cells in DMEM containing 10% fetal bovine serum (Gibco) were seeded in 96-well tissue culture plates at a cell density of 1 × 10^4 cells/mL and incubated for 24 h to allow adhesion. The supernatant was then replaced with fresh DMEM containing various concentrations of 19ak, 19k and 19t. […]\nThe effects of the compounds on cell proliferation were detected by measuring the absorbance at 570 nm in a microplate reader (BioTek, VT, USA). […]\nthe fluorescent complex […] (CTF) is commonly used to indicate the intensity of microbial respiration. C. albicans SC5314 treated with 19ak was stained with 1 mM CTC for 30 min, followed by flow cytometry analysis of respiratory activity based on fluorescence intensity. Images of cells were obtained using a fluorescence microscope (IX71, Olympus, Tokyo, Japan). […] After an additional 2 h of incubation, OD450 in each well was detected with a microplate reader. […]\nMitochondrial complex activity was expressed as nmol/min/mg protein. […]"}, "16HBE": {"test_system": "16HBE", "assay": "Intracellular ferrous and zinc contents in mammalian cells (FeRhoNox-1, Zinbo-5)", "type": "cell-based, human", "conditions": "5 μg/mL, 12 h", "description": "(§1) FeRhoNox-1 is a commercially available fluorescent probe that specifically binds Fe^2+ and is used to measure intracellular Fe^2 + content. C. albicans SC5314 cells cultured overnight were diluted to roughly 1 × 10^6 cells/mL in RPMI 1640 medium and challenged with various doses of 19ak for 6 h. Next, the cells were fixed with 4% paraformaldehyde for 1 h. After washing three times with PBS, the cells were stained with 5 μM FeRhoNox-1 for 30 min and analyzed by flow cytometry (Becton, Dickinson, CA, USA). Mammalian cells culture is according to the method described in Cytotoxicity testing which was described in Supplemental material in detail. After 12 h of treatment with different concentrations of 19ak, the supernatant was discarded and washed three times with PBS. Cells were collected after staining with FeRhoNox-1 for 30 min in the dark, and the fluorescence intensity of stained cells was analyzed by flow cytometry.\n(§2) C. albicans SC5314 cells grown overnight were pelleted, washed three times with PBS buffer, and resuspended to obtain an OD600 of 2.0. Next, the cells were incubated with various concentrations of 19ak in 96-well plates at 30°C for 6 h, followed by incubation with 10 μM Zinbo-5 for 30 min. Finally, fluorescence was measured in a microplate reader (excitation at 355 nm, emission at 485 nm). […]"}, "HepG2": {"test_system": "HepG2", "assay": "Intracellular ferrous and zinc contents in mammalian cells (FeRhoNox-1, Zinbo-5)", "type": "cell-based, human", "conditions": "5 μg/mL, 12 h", "description": "as §1, §2"}}, "data": [{"compound": "C/C(=N\\NC(=S)N(C)C)c1ccccn1", "note": "[Compound 19ak]", "values": [{"measurement": "Change of MIC after repeated exposure", "setting": "C. albicans SC5314 [1]", "result": "did not alter the MIC"}, {"measurement": "Mitochondrial respiratory activity (CTC fluorescence intensity)", "setting": "C. albicans SC5314 [2]", "result": "dose-dependently reduced"}, {"measurement": "Ferrous and zinc contents in 16HBE cells", "setting": "16HBE", "result": "almost had no effects"}, {"measurement": "Ferrous and zinc contents in HepG2 cells", "setting": "HepG2", "result": "almost had no effects"}]}]}
